In patent US20050250715A1, “Remedy” (priority 2002, published 2005):

How the values were obtained:
NGF = test: Enhancing activity for NGF production in L-M cells (NGF in culture medium by enzyme immunoassay); type: cell-based, murine; conditions: 20 hours; for Amount of NGF Production (%): control = 100%
Procedure: (2) The enhancing activity for NGF production of the compound a was assayed. L-M cells (ATCC CCL-1.2) from murine fibroblasts were suspended in an M199 medium (manufactured by Bio Whittaker) containing 0.5% bactopeptone (manufactured by Gibco) so as to have a concentration of 1.5×10^5 cells/mL. The suspension was put in a 96 well plate in an amount of 0.1 mL each well, and the cells were aseptically cultured. After culturing the cells for 3 days, the medium was removed therefrom, and exchanged with an M199 medium containing 0.5% bovine serum albumin (manufactured by Sigma). The compound a was added thereto, and the cells were cultured for 20 hours. After the termination of the culture, the concentration of NGF in the culture medium was assayed by an enzyme immunoassay method (NGF Emax Immuno Assay System, manufactured by Promega). The experiment was carried out twice, and an average value was taken. […] The amount of NGF production of the control was 0.739 ng/mL. As to the control, the concentration in the culture medium was determined in the same manner except that the compound a was not added. It is the same as that of the following examples.

mouse = test: Oral toxicity in mouse; type: in vivo; conditions: mouse (male, 6-week old), orally administered at 1000 mg per kg body weight

| Compound | enhancing activity for NGF production (result in words) (NGF) | Amount of NGF Production (%) (NGF; Concentration of Sample 1.0 mM) | Amount of NGF Production (%) (NGF; Concentration of Sample 2 mM) | Amount of NGF Production (%) (NGF; Concentration of Sample 0.5 mM) | Amount of NGF Production (%) (NGF; Table 3: Concentration of Sample 25 mM) | Amount of NGF Production (%) (NGF; Table 3: Concentration of Sample 50 mM) | toxicity (mouse) | Amount of NGF Production (%) (NGF; Table 4: Concentration of Sample 0.25 mM) | Amount of NGF Production (%) (NGF; Table 4: Concentration of Sample 0.5 mM) | Amount of NGF Production (%) (NGF; Table 4: Concentration of Sample 1.0 mM) |
| --- | --- | --- | --- | --- | --- | --- | --- | --- | --- | --- |
| CC1(C)CC(=O)C2(C)CCC3(C)C(=CCC4C5(C)CCC(OC6OC(C(=O)O)C(O)C(O)C6OC6OC(CO)C(O)C(O)C6OC6OC(CO)C(O)C(O)C6O)C(C)(CO)C5CCC43C)C2C1 [Compound k, 3-O-[β-D-glucopyranosyl(1→2)-β-D-galactopyranosyl-(1→2)-β-D-glucuronopyranosyl]-soyasapogenol E] | has enhancing activity for NGF production | 115.9 | 456.3 | – | – | – | – | – | – | – |
| CC1OC(OC2C(OC3C(OC4CCC5(C)C(CCC6(C)C5CC=C5C7CC(C)(C)CC(=O)C7(C)CCC56C)C4(C)CO)OC(C(=O)O)C(O)C3O)OC(CO)C(O)C2O)C(O)C(O)C1O [Compound l, 3-O-[α-L-rhamnopyranosyl(1→2)-β-D-galactopyranosyl-(1→2)-β-D-glucuronopyranosyl]-soyasapogenol E] | has enhancing activity for NGF production | 145.9 | 531.2 | – | – | – | – | – | – | – |
| CC(=O)OC1COC(OC2C(O)COC(OC3C(O)C(C)(C)CC4C5=CCC6C7(C)CCC(OC8OC(C(=O)O)C(O)C(O)C8OC8OC(CO)C(O)C(O)C8OC8OC(CO)C(O)C(O)C8O)C(C)(CO)C7CCC6(C)C5(C)CCC43C)C2O)C(OC(C)=O)C1OC(C)=O [Compound m, 3-O-[β-D-glucopyranosyl(1→2)-β-D-galactopyranosyl-(1→2)-β-D-glucuronopyranosyl]-22-O-[2,3,4-tri-O-acetyl-β-D-xylopyranosyl(1→3)-α-L-arabinopyranosyl]soyasapogenol A] | has enhancing activity for NGF production | 250.9 | 233.4 | 263.3 | – | – | – | – | – | – |
| CC1(C)CC2=C3CC[C@@H]4[C@@]5(C)CCC(O)[C@](C)(CO)[C@@H]5CC[C@@]4(C)[C@]3(C)CC[C@@]2(C)C(O)C1 (stereo partly drawn) [Compound n, 13(18)-oleanene-3,22,24-triol] | has enhancing activity for NGF production | – | – | – | 197.9 | 522.6 | – | – | – | – |
| CC1(C)[C@@H](O[C@H]2O[C@H](C(=O)O)[C@@H](O)[C@H](O)[C@H]2O[C@@H]2O[C@H](C(=O)O)[C@@H](O)[C@H](O)[C@H]2O)CC[C@]2(C)[C@H]3C(=O)C=C4[C@@H]5C[C@@](C)(C(=O)O)CC[C@]5(C)CC[C@@]4(C)[C@]3(C)CC[C@@H]12 [Glycyrrhizin, glycyrrhizin, reference compound] | has enhancing activity for NGF production | – | – | – | – | – | no toxicity is found | 113.0 | 204.3 | 261.0 |
